Key:
Propionibacterium acnes = test: Antimicrobial efficacy in analogy to challenge test NF EN ISO11930, P. acnes; type: cell-based; conditions: 0.1 wt.-% single active; for Propionibacterium acnes colony count: 24 h after contamination, 22° C., initial count 310000 cfu/ml
From the text: The wells are contaminated with either Propionibacterium acnes or Escherichia coli at 2.5*10^5 to 5.6*10^5 cfu/ml to obtain the initial contamination as outlined in table 1. […] (The term “Log reduction” is a well-known mathematical term used to show the relative number of cells, germs, microbes, etc., reduced in or on something, e.g. a 2 log reduction means the number of microbes is 100 times smaller and a 3 log reduction means the number of microbes is 1000 times smaller).

Escherichia coli = test: Antimicrobial efficacy in analogy to challenge test NF EN ISO11930, E. coli; type: cell-based; conditions: 0.1 wt.-% single active; for Escherichia coli colony count: 24 h after contamination, 22° C., initial count 250000 cfu/ml
From the text: The wells are contaminated with either Propionibacterium acnes or Escherichia coli at 2.5*10^5 to 5.6*10^5 cfu/ml to obtain the initial contamination as outlined in table 1.

Question: For `O=C(CO)[C@H](O)CO` (racemic) [erythrulose], which “Propionibacterium acnes colony count” value (Propionibacterium acnes) is on record?
Answer: 3000 cfu/ml

Question: What about the “Δ (change of microorganism count t = 24 h vs t = 0)” value (Escherichia coli) of the same compound?
Answer: +112%

Question: What about the “Escherichia coli colony count” value (Escherichia coli) of the same compound?
Answer: 530000 cfu/ml

Question: `CC(=O)OC/C=C(C)/C=C/C=C(C)/C=C/C1=C(C)CCCC1(C)C` [retinyl acetate] was tested. Which “Propionibacterium acnes colony count” value (Propionibacterium acnes) did it give?
Answer: 3000 cfu/ml

Question: And the Log reduction (Propionibacterium acnes; 24 h vs 0 h)?
Answer: 2

Question: What about the “Δ (change of microorganism count t = 24 h vs t = 0)” value (Escherichia coli) of the same compound?
Answer: +112%

Question: And the “Escherichia coli colony count” value (Escherichia coli)?
Answer: 530000 cfu/ml

— patent US20200121579A1, “TOPICAL COMPOSITIONS” (DSM IP ASSETS B.V., priority 2017, published 2020)
